Measured values taken from the NIST ThermoML archive (doi:10.1021/je100896n).
± gives the expanded uncertainty stated by the source.

Details: Fluid (supercritical or subcritical phases), Pulse-echo method

C=C(F)C(F)(F)F [2,3,3,3-tetrafluoro-1-propene]
Details	speed of sound [m/s]
259.99 K, 4968 kPa	655.69 ± 1.4
260 K, 1989 kPa	632.05 ± 1.4
260 K, 3044 kPa	640.57 ± 1.4
260 K, 4057 kPa	648.57 ± 1.4
260 K, 5993 kPa	663.37 ± 1.4
285 K, 4006 kPa	546.27 ± 1.5
285 K, 5983 kPa	565.09 ± 1.5
285.01 K, 2033 kPa	525.9 ± 1.6
285.01 K, 3011 kPa	536.18 ± 1.5
285.01 K, 5090 kPa	556.71 ± 1.5
310 K, 5016 kPa	456.81 ± 1.7
310 K, 6057 kPa	469.1 ± 1.6
310.01 K, 2013 kPa	415.62 ± 2.2
310.01 K, 3042 kPa	430.67 ± 1.8
310.01 K, 4019 kPa	444 ± 1.7
334.98 K, 5937 kPa	371.38 ± 1.9
335 K, 2073 kPa	293.74 ± 2.6
335 K, 3039 kPa	317.18 ± 2.5
335 K, 3985 kPa	336.92 ± 2.2
335 K, 5008 kPa	355.82 ± 2.1
359.94 K, 6062 kPa	275.99 ± 2.8
359.96 K, 4997 kPa	248.55 ± 2.8

F/C=C/C(F)(F)F [trans-1,3,3,3-tetrafluoropropene]
Details	speed of sound [m/s]
259.98 K, 1980 kPa	715.11 ± 1.4
259.98 K, 3989 kPa	728.84 ± 1.4
260 K, 6021 kPa	742.08 ± 1.4
260 K, 8007 kPa	754.65 ± 1.4
260.01 K, 10070 kPa	767.16 ± 1.4
285 K, 1956 kPa	606.38 ± 1.5
285 K, 4021 kPa	624.26 ± 1.4
285 K, 6056 kPa	640.72 ± 1.4
285 K, 8005 kPa	655.64 ± 1.4
285 K, 9989 kPa	670.06 ± 1.4
310 K, 2063 kPa	497.64 ± 1.7
310 K, 3947 kPa	519.14 ± 1.6
310 K, 10112 kPa	578.79 ± 1.5
310.01 K, 6041 kPa	540.98 ± 1.5
310.01 K, 8005 kPa	559.88 ± 1.5
335 K, 7985 kPa	465.6 ± 1.6
335 K, 10020 kPa	488.5 ± 1.6
335.01 K, 2007 kPa	379.56 ± 2
335.01 K, 4027 kPa	413.08 ± 1.9
335.01 K, 5978 kPa	440.56 ± 1.7
360 K, 6047 kPa	340.1 ± 2.2
360.02 K, 3998 kPa	296.31 ± 2.4
360.03 K, 8052 kPa	373.95 ± 1.9
360.03 K, 10036 kPa	402.5 ± 1.8
